Molecules are shown by their SMILES. Counter-ions that a name gives are not always drawn.

Series [1] in a line: in vitro. As to conditions: human, plasma.
Series [2] is described as follows: in vitro. As to conditions: SD, HW or BN, rat, plasma.

`O=c1cc(N2CCOCC2)nc2n(Cc3cccc(Cl)c3)ccn12`: the fraction unbound at 5 h was 0.101 in “in vitro [1]” (PPB) and 0.11 in “in vitro [2]”.
Take `CN1CCN(S(=O)(=O)c2ccc(-c3cnc(N)c(C(=O)Nc4cnccc4CN4CCCC4)n3)cc2)CC1`: the fraction unbound at 5 h in “in vitro [1]” (PPB) is 0.0784; in “in vitro [2]” it was 0.0988.
The corresponding values for `CC(C)c1noc(C2CCN(c3ncnc(Nc4ccc(S(C)(=O)=O)cc4F)c3[N+](=O)[O-])CC2)n1` are 0.0099 and 0.016.
Regarding `O=C(CC(c1ccccc1)c1ccccc1)N1CCN(C(c2ccccc2)c2ccccc2)CC1` [Z160], the fraction unbound at 5 h in the series “in vitro [1]” (PPB) was 0.001; in the series “in vitro [2]”, 0.5.
As to `CC(C)Oc1cc(Nc2nc(N[C@@H](C)c3ccc(F)cc3)nc(NC(CO)CO)c2Cl)n[nH]1`, the values for the fraction unbound at 5 h in the series “in vitro [1]” (PPB) and in the series “in vitro [2]” were 0.0358 and 0.0428, respectively.
For the molecule `COCCCC/C(=N\OCCN)c1ccc(C(F)(F)F)cc1` [FLUVOXAMINE MALEATE], the unbound share (fraction unbound) at 5 h in the series “in vitro [1]” (PPB) is 0.266; in the series “in vitro [2]”, 0.224.
For `CC(O)(C(=O)Nc1ccc(S(=O)(=O)N2CCOCC2)cc1)C(F)(F)F` (stereo not given), the fraction unbound at 5 h in the series “in vitro [1]” (PPB) is 0.371; in the series “in vitro [2]” it was 0.151.
For `Cc1onc(-c2c(Cl)cccc2Cl)c1NC(=O)OCc1c(F)cccc1Cl`, the fraction unbound at 5 h in the series “in vitro [1]” (PPB) was 0.002; in “in vitro [2]”, 0.003.
The corresponding values for `COc1ncc(-c2cccc(C#N)c2CCNC(=O)c2ccc(OCCC(F)(F)F)nc2)cn1` are 0.119 and 0.139.
`CC1CN(c2cc(=O)[nH]c(NCc3cccc4ccccc34)n2)CCO1` (stereo not given): the results for the free fraction (fraction unbound) at 5 h in the series “in vitro [1]” (PPB) and in the series “in vitro [2]” were 0.013 and 0.024, respectively.
As for `O=C(NCc1ccc(OC(F)(F)F)cc1)C1c2ccccc2C(=O)N1C[C@@H]1CCCO1` (stereo not given in full), the free fraction (fraction unbound) at 5 h was 0.0358 in “in vitro [1]” (PPB) and 0.0606 in “in vitro [2]”.
For `Cc1nc2ccc(NS(=O)(=O)c3ccc4c(c3)OCCO4)cc2s1`, the fraction unbound at 5 h in “in vitro [1]” (PPB) is 0.0033; in “in vitro [2]”, 0.0067.
Regarding `O=C(O)c1c(O)c(Cc2ccc(Cl)cc2)nc2c3c(ccc12)CCCC3` [PSI-697], the fraction unbound at 5 h is 0.0007 in the series “in vitro [1]” (PPB) and 0.0014 in the series “in vitro [2]”.
For the molecule `CNc1ccc(-c2nc3ccc(O)cc3s2)cc1` [PITTSBURGH COMPOUND B UNLABELLED], the values for the fraction unbound at 5 h in the series “in vitro [1]” (PPB) and in the series “in vitro [2]” were 0.0111 and 0.0183, respectively.
With `CCC[C@@H](c1ccc(C(=O)O)c(Oc2cccc(Cl)c2)c1)N1CCC[C@H](n2cc(C)c(=O)[nH]c2=O)C1`, the fraction unbound at 5 h was 0.007 in the series “in vitro [1]” (PPB) and 0.0179 in the series “in vitro [2]”.
For the molecule `CN(C)CCC1CCN(c2cc(C(=O)NC[C@H]3CC[C@H](CNC(=O)OC4CCOCC4)CC3)c3ccccc3n2)CC1`, the results for the fraction unbound at 5 h in “in vitro [1]” (PPB) and in “in vitro [2]” were 0.179 and 0.262, respectively.
Regarding `CC(C)(C)OC(=O)NC[C@H]1CC[C@H](CNC(=O)c2cc(-c3ccccc3)nc3ccccc23)CC1`, the results for the fraction unbound at 5 h in “in vitro [1]” (PPB) and in “in vitro [2]” were 0.0008 and 0.005, respectively.
The corresponding values for `CC(C)(C)C(NC(=O)c1ccccc1)C(=O)c1ccc(Cl)cc1` (stereo not given) are 0.006 and 0.0081.
The matching figures for `COc1cnc(-c2cccc(F)c2C(F)(F)CNC(=O)c2ccc(COCC(F)(F)F)nc2)cn1`: 0.0328 and 0.0457.
For `CC(C)NC[C@H](O)COc1cccc2ccccc12` [LEVOPROPRANOLOL], the values for the unbound share (fraction unbound) at 5 h in “in vitro [1]” and in the series “in vitro [2]” were 0.139 and 0.204, respectively.
On to `O=C(CCCN1CC[Si](O)(c2ccc(Cl)cc2)CC1)c1ccc(F)cc1`, for which the fraction unbound at 5 h in “in vitro [1]” (PPB) and in “in vitro [2]” was 0.0544 in each case.
In the case of `Cc1nn(-c2ccccc2)nc1C(=O)N[C@@H]1COc2cccc(N3CCN(C)CC3)c2C1`, the fraction unbound at 5 h in the series “in vitro [1]” (PPB) is 0.0418; in “in vitro [2]” it was 0.0383.
Regarding `COc1ccc(C2CNC(=O)C2)cc1OC1CCCC1` (stereo not given) [ROLIPRAM], the fraction unbound at 5 h in the series “in vitro [1]” (PPB) is 0.173; in the series “in vitro [2]”, 0.329.
`O=c1cc(N2CCOCC2)nc(NCc2cccc(Cl)c2Cl)[nH]1`: the fraction unbound at 5 h is 0.0209 in the series “in vitro [1]” (PPB) and 0.0179 in the series “in vitro [2]”.
As for `Cc1ccc(S(=O)(=O)Nc2c(C(=O)NC3CCOCC3)c(C)nn2-c2ccccc2)cc1`, the fraction unbound at 5 h in the series “in vitro [1]” (PPB) was 0.0262; in the series “in vitro [2]”, 0.089.
As for `Cc1ccc(NC(=O)Nc2nnc(-c3ccncc3)s2)cc1`, the fraction unbound at 5 h in “in vitro [1]” (PPB) was 0.0061; in “in vitro [2]” it was 0.0064.
On to `Cc1ccc(S(=O)(=O)Nc2ccc3nc(C)sc3c2)cc1`, for which the fraction unbound at 5 h is 0.0021 in “in vitro [1]” and 0.0053 in “in vitro [2]”.
Turning to `CC(C)C(NC(=O)c1ccccc1)C(=O)c1ccc(C#N)cc1` (stereo not given), the fraction unbound at 5 h in “in vitro [1]” (PPB) was 0.0928; in the series “in vitro [2]”, 0.124.
For the molecule `N#Cc1cc(S(=O)(=O)Nc2ncns2)ccc1Oc1ccc(C(F)(F)F)cc1-c1ccnnc1`, the free fraction (fraction unbound) at 5 h in the series “in vitro [1]” (PPB) was 0.0059; in “in vitro [2]” it was 0.0209.
For `O=c1cc(N2CCOCC2)nc(NCc2ccccc2)[nH]1`, the figures for the free fraction (fraction unbound) at 5 h in the series “in vitro [1]” (PPB) and in “in vitro [2]” were 0.266 and 0.19, respectively.
The corresponding values for `O=C(NCc1cccc(OC(F)(F)F)c1)C1c2ccccc2C(=O)N1CCc1ncc(F)cn1` (stereo not given) are 0.0447 and 0.179.
The matching figures for `CCOc1ccc([C@@H](C)Nc2nc(N3CCN(C(C)=O)CC3)nc3c2CN(C(C)C)C3=O)cc1F`: 0.334 and 0.258.
Consider `Cc1ccc(S(=O)(=O)NCCSc2nnnn2-c2ccc(C(N)=O)cc2)cc1`, for which the fraction unbound at 5 h was 0.101 in the series “in vitro [1]” (PPB) and 0.19 in the series “in vitro [2]”.
In the case of `Cc1onc(-c2c(Cl)cccc2Cl)c1CC(=O)NCc1ccc(OCC(F)(F)F)nc1`, the results for the fraction unbound at 5 h in the series “in vitro [1]” (PPB) and in “in vitro [2]” were 0.009 and 0.0457, respectively.
For `Cc1nc(C(C)C)c(-c2ccc([C@H]3CC[C@H](CC(=O)O)CC3)cc2)nc1C(N)=O`, the unbound share (fraction unbound) at 5 h in “in vitro [1]” (PPB) is 0.0219; in “in vitro [2]”, 0.0119.
The matching figures for `Cc1ncc(C(N)=S)nc1-c1ccc([C@H]2CC[C@H](CC(=O)O)CC2)cc1`: 0.028 and 0.0099.
As for `c1ccc2c(c1)CCC[C@H]2Nc1nc2ccccc2[nH]1`, the figures for the fraction unbound at 5 h in the series “in vitro [1]” (PPB) and in the series “in vitro [2]” were 0.007 and 0.0437, respectively.
Take `O=C(O)c1cccnc1` [NIACIN]: the results for the free fraction (fraction unbound) at 5 h in “in vitro [1]” (PPB) and in “in vitro [2]” were 0.552 and 0.546, respectively.
Take `COc1ccc(-c2c(C(=O)N3CCC[C@H]3CO)cc3cccnn23)cc1`: the fraction unbound at 5 h in “in vitro [1]” (PPB) is 0.11; in the series “in vitro [2]” it was 0.262.
Turning to `CN(c1ccccc1)S(=O)(=O)c1ccc(NC(=O)C(C)(O)C(F)(F)F)cc1` (stereo not given), the fraction unbound at 5 h was 0.0229 in “in vitro [1]” (PPB) and 0.024 in the series “in vitro [2]”.
As to `COCCNCC(=O)NC12CC3CC(CC(C3)C1)C2`, the values for the fraction unbound at 5 h in the series “in vitro [1]” (PPB) and in “in vitro [2]” were 0.5 and 0.483, respectively.
Consider `O=C(CCCN1CC[Si](O)(c2cccc(C(F)(F)F)c2)CC1)c1ccc(F)cc1`, for which the fraction unbound at 5 h is 0.0409 in the series “in vitro [1]” (PPB) and 0.0447 in the series “in vitro [2]”.
Regarding `Cc1onc(-c2ccccc2)c1C(=O)N(C)c1ccc(Cl)cc1`, the fraction unbound at 5 h in “in vitro [1]” (PPB) is 0.0418; in “in vitro [2]”, 0.0752.
Take `CCCCc1nc(Cl)c(C(=O)O)n1Cc1ccc(-c2ccccc2-c2nn[nH]n2)cc1` [CARBOXYLIC ACID METABOLITE]: the fraction unbound at 5 h in “in vitro [1]” (PPB) is 0.0049; in “in vitro [2]” it was 0.0022.
The matching figures for `COc1ncc(-c2c(C)ccc(F)c2CCNC(=O)c2ccc(OCC(F)(F)F)nc2)cn1`: 0.002 and 0.0437.
As for `O=c1cc(N2CCOCC2)nc(NCc2c(Cl)cccc2Cl)[nH]1`, the free fraction (fraction unbound) at 5 h in the series “in vitro [1]” (PPB) is 0.04; in “in vitro [2]”, 0.0418.
For `Cn1c(-c2cc(=O)c(O)c[nH]2)nn(S(=O)(=O)NC(=O)N2C[C@H](NC(=O)/C(=N\OC(C)(C)C(=O)O)c3csc(N)n3)C2=O)c1=O`, the values for the fraction unbound at 5 h in the series “in vitro [1]” (PPB) and in “in vitro [2]” were 0.0447 and 0.0149, respectively.
The matching figures for `COc1ccc2c(c1)C(=O)C(=O)N2CC1COc2ccccc2O1` (stereo not given): 0.0066 and 0.0059.
`CC(C)(Oc1ccc(Cl)cc1)C(=O)N1CCN(c2ccccn2)CC1`: the fraction unbound at 5 h in “in vitro [1]” (PPB) was 0.0077; in “in vitro [2]”, 0.0092.
The matching figures for `NC(=O)c1cncc(-c2ccc([C@H]3CC[C@H](CCO)CC3)cc2)n1`: 0.028 and 0.013.
As to `CC(C)(C)[C@@H](O)C(=O)N1CCC[C@H]1C(=O)NCc1cc(Cl)ccc1CN`, the unbound share (fraction unbound) at 5 h was 0.58 in the series “in vitro [1]” (PPB) and 0.5 in “in vitro [2]”.
In the case of `O=c1nc(N2CCOCC2)cc(N(CCO)Cc2cccc3ccccc23)[nH]1`, the fraction unbound at 5 h in “in vitro [1]” (PPB) was 0.139; in “in vitro [2]”, 0.151.
As to `Cc1nnc(-c2ccc(N3CCC(Oc4cc(F)ccc4Cl)CC3)nn2)o1`, the fraction unbound at 5 h is 0.0179 in “in vitro [1]” (PPB) and 0.0082 in the series “in vitro [2]”.
As to `COc1cccc2c1c(NS(=O)(=O)c1ccc(Cl)s1)nn2Cc1cccc(CNC(C)=O)c1`, the free fraction (fraction unbound) at 5 h in “in vitro [1]” (PPB) was 0.0066; in the series “in vitro [2]”, 0.0028.
For `Cc1c(F)cc(C(=O)NC2CC2)cc1-c1ccc(C(=O)NCC(C)(C)C)cn1` [LOSMAPIMOD], the fraction unbound at 5 h in the series “in vitro [1]” (PPB) is 0.119; in “in vitro [2]”, 0.0818.
Turning to `O=c1cc(N2CCOCC2)nc(NCc2cccc3ccccc23)[nH]1`, the results for the fraction unbound at 5 h in “in vitro [1]” (PPB) and in “in vitro [2]” were 0.0321 and 0.0251, respectively.
The matching figures for `CC(C)(C)OC(=O)N[C@H](Cc1ccccc1C(F)(F)F)C(=O)NCc1nc2cccnc2n1Cc1ccccc1`: 0.0111 and 0.002.
In the case of `O=C(NCc1ccc(OC(F)(F)F)cc1)C1c2ccccc2C(=O)N1CCc1ccccn1` (stereo not given), the fraction unbound at 5 h was 0.0358 in “in vitro [1]” (PPB) and 0.0447 in the series “in vitro [2]”.
The corresponding values for `C[N+](C)(Cc1ccc(NC(=O)c2ccc(Cl)c(Cl)c2)cc1)C1CCOCC1` [JNJ-17166864 CATION] are 0.179 and 0.387.
With `O=C(NCc1ccc(F)c(C(F)(F)F)c1)C1c2ccccc2C(=O)N1CCc1ncc(F)cn1` (stereo not given), the fraction unbound at 5 h in the series “in vitro [1]” (PPB) is 0.0477; in “in vitro [2]” it was 0.129.

These data come from ChEMBL document CHEMBL3301361, “Experimental in vitro DMPK and physicochemical data on a set of publicly disclosed compounds”.
